# From ChEMBL document CHEMBL1201862, “PubChem BioAssay data set” (2004)
#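 Compound exposure: 48 hours, 5 concentrations, 96-well plates. At the GI50, growth is halved.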 Active and inactive are the calls of the source. Rule as the data show it: active = GI50 up to about 1.1 µM and inactive = higher. Residues, ends and D or L forms follow the SMILES beside them.
# Tests used:
# Test in all cases: DTP human tumour cell line panel, 48 h
# [1] = tested on: A498
# [2] = tested on: HOP-92
# [3] = tested on: CCRF-CEM
# [4] = tested on: SF-539
# [5] = tested on: SN12C
# [6] = tested on: Malme-3M
# [7] = tested on: HL-60
# [8] = tested on: U-251
# [9] = tested on: T47D
# [10] = tested on: UACC-257
# [11] = tested on: KM12
# [12] = tested on: COLO 205
# [13] = tested on: SK-OV-3
# [14] = tested on: TK-10
# [15] = tested on: PC-3
# [16] = tested on: M14
# [17] = tested on: SF-268
# [18] = tested on: SK-MEL-28
# [19] = tested on: SK-MEL-5
# [20] = tested on: HCT-15
Compound,GI50 [1],GI50 [2],GI50 [3],GI50 [4],GI50 [5],GI50 [6],GI50 [7],GI50 [8],GI50 [9],GI50 [10],GI50 [11],GI50 [12],GI50 [13],GI50 [14],GI50 [15],GI50 [16],GI50 [17],GI50 [18],GI50 [19],GI50 [20]
Cn1c2ccccc2c2ccc3c(c21)C(=O)c1ccc2c4ccccc4n(C)c2c1C3=O,> 100 µM (inactive),> 100 µM (inactive),> 100 µM (inactive),> 100 µM (inactive),> 100 µM (inactive),87.5 µM (inactive),> 100 µM (inactive),> 100 µM (inactive),> 100 µM (inactive),> 100 µM (inactive),> 100 µM (inactive),> 100 µM (inactive),> 100 µM (inactive),> 100 µM (inactive),> 100 µM (inactive),> 100 µM (inactive),> 100 µM (inactive),> 100 µM (inactive),> 100 µM (inactive),> 100 µM
C[C@]1(O)O[C@@H]2OCC[C@@H]2C2=C1C(=O)c1ccccc1C2=O,14.1 µM (inactive),12.8 µM (inactive),15.4 µM (inactive),17.3 µM (inactive),23 µM (inactive),15.9 µM (inactive),12.3 µM (inactive),15.2 µM (inactive),18.3 µM (inactive),17.1 µM (inactive),14.8 µM (inactive),24.9 µM (inactive),21.9 µM (inactive),20.4 µM (inactive),22.1 µM (inactive),11.3 µM (inactive),12.8 µM (inactive),29.4 µM (inactive),12.4 µM (inactive),19 µM
O=c1c2ccccc2nc(-c2ccccc2)n1O,> 100 µM (inactive),22.9 µM (inactive),19.6 µM (inactive),> 100 µM (inactive),> 100 µM (inactive),> 100 µM (inactive),54 µM (inactive),> 100 µM (inactive),45.6 µM (inactive),> 100 µM (inactive),67 µM (inactive),> 100 µM (inactive),> 100 µM (inactive),> 100 µM (inactive),> 100 µM (inactive),95.7 µM (inactive),> 100 µM (inactive),> 100 µM (inactive),70.8 µM (inactive),41.1 µM
CSc1nc(C#N)c(/N=C\N(C)C)n1C,> 100 µM (inactive),> 100 µM (inactive),> 100 µM (inactive),> 100 µM (inactive),> 100 µM (inactive),> 100 µM (inactive),> 100 µM (inactive),> 100 µM (inactive),> 100 µM (inactive),> 100 µM (inactive),> 100 µM (inactive),> 100 µM (inactive),> 100 µM (inactive),> 100 µM (inactive),> 100 µM (inactive),> 100 µM (inactive),> 100 µM (inactive),> 100 µM (inactive),> 100 µM (inactive),> 100 µM
CC(=O)NC(CO)C(=O)NC(Cc1ccc(O)cc1)C(=O)NCC(N)=O (stereo not drawn) (Ac-Ser-Tyr-Gly-NH2; configuration not given here),> 100 µM (inactive),> 100 µM (inactive),> 100 µM (inactive),> 100 µM (inactive),> 100 µM (inactive),> 100 µM (inactive),> 100 µM (inactive),> 100 µM (inactive),> 100 µM (inactive),> 100 µM (inactive),> 100 µM (inactive),> 100 µM (inactive),> 100 µM (inactive),> 100 µM (inactive),> 100 µM (inactive),> 100 µM (inactive),> 100 µM (inactive),> 100 µM (inactive),> 100 µM (inactive),> 100 µM
